Assay results from PubChem BioAssay AID1845202 (Molecular Pharmacology Branch, DTP, NCI, 2023).

Test system: DMS 114 tumor spheroids, viability % test/control
Assay: Anticancer human tumor DMS 114 cell line growth inhibition;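 further: spheroids exposed to compounds for 7 days before read-out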;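 on viability, T/C: luminescence used as a proxy for viable cells; 100% = DMSO vehicle control viability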
Conditions: spheroids with HUVEC and MSC; for IC50: curve of first compound; for viability, T/C: stronger effect = lower value
In short: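 Complex spheroids of malignant cells with endothelial cells and mesenchymal stem cells; agents alone or combined, from near clinical Cmax (or 10 microM if unknown) down in half-log steps, 0.25% DMSO final.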

[1] = second compound 0.003 µM, first compound 0.00949 µM
[2] = second compound 0.003 µM, first compound 0.03 µM
[3] = second compound 0.003 µM, first compound 0.0949 µM
[4] = second compound 0.003 µM, first compound 0.3 µM
[5] = second compound 0.003 µM, first compound 0.949 µM
[6] = second compound 0.003 µM, first compound 3 µM

Cn1ncnc1[C@H]1c2n[nH]c(=O)c3cc(F)cc(c23)N[C@@H]1c1ccc(F)cc1 + COc1cc2c(cc1O)CCNC21CSC2c3c(OC(C)=O)c(C)c4c(c3C(COC1=O)N1C(O)C3Cc5cc(C)c(OC)c(O)c5C(C21)N3C)OCO4
IC50 (second compound 30 pM): 428 nM | IC50 (second compound 94.9 pM): 104 nM | IC50 (second compound 0.0003 µM): < 9.49 nM | IC50 (second compound 0.000949 µM): < 9.49 nM | IC50 (second compound 0.003 µM): < 9.49 nM | viability, T/C (second compound 30 pM, first compound 0.00949 µM): 91.6% | viability, T/C (second compound 30 pM, first compound 0.03 µM): 91% | viability, T/C (second compound 30 pM, first compound 0.0949 µM): 78.4% | viability, T/C (second compound 30 pM, first compound 0.3 µM): 59.6% | viability, T/C (second compound 30 pM, first compound 0.949 µM): 29.9% | viability, T/C (second compound 30 pM, first compound 3 µM): 10.4% | viability, T/C (second compound 94.9 pM, first compound 0.00949 µM): 79.2% | viability, T/C (second compound 94.9 pM, first compound 0.03 µM): 63.3% | viability, T/C (second compound 94.9 pM, first compound 0.0949 µM): 54.6% | viability, T/C (second compound 94.9 pM, first compound 0.3 µM): 33.3% | viability, T/C (second compound 94.9 pM, first compound 0.949 µM): 16.5% | viability, T/C (second compound 94.9 pM, first compound 3 µM): 7.38% | viability, T/C (second compound 0.0003 µM, first compound 0.00949 µM): 21.8% | viability, T/C (second compound 0.0003 µM, first compound 0.03 µM): 20.3% | viability, T/C (second compound 0.0003 µM, first compound 0.0949 µM): 17.8% | viability, T/C (second compound 0.0003 µM, first compound 0.3 µM): 16.6% | viability, T/C (second compound 0.0003 µM, first compound 0.949 µM): 10.7% | viability, T/C (second compound 0.0003 µM, first compound 3 µM): 5.92% | viability, T/C (second compound 0.000949 µM, first compound 0.00949 µM): 2.67% | viability, T/C (second compound 0.000949 µM, first compound 0.03 µM): 3.65% | viability, T/C (second compound 0.000949 µM, first compound 0.0949 µM): 3.4% | viability, T/C (second compound 0.000949 µM, first compound 0.3 µM): 2.16% | viability, T/C (second compound 0.000949 µM, first compound 0.949 µM): 1.41% | viability, T/C (second compound 0.000949 µM, first compound 3 µM): 0.78% | viability, T/C [1]: 0.32% | viability, T/C [2]: 0.33% | viability, T/C [3]: 0.3% | viability, T/C [4]: 0.32% | viability, T/C [5]: 0.28% | viability, T/C [6]: 0.49%

Cc1sc2c(c1C)C(c1ccc(Cl)cc1)=NC(CC(=O)Nc1ccc(O)cc1)c1nnc(C)n1-2 (stereo not given) + CC[C@@]1(O)C(=O)OCc2c1cc1n(c2=O)Cc2cc3c(CN(C)C)c(O)ccc3nc2-1
IC50 (second compound 0.003 µM): 89.3 nM | IC50 (second compound 0.00949 µM): 56.4 nM | IC50 (second compound 0.03 µM): < 9.49 nM | IC50 (second compound 0.0949 µM): < 9.49 nM | IC50 (second compound 0.3 µM): < 9.49 nM | viability, T/C [1]: 96.7% | viability, T/C [2]: 97.2% | viability, T/C [3]: 45.5% | viability, T/C [4]: 18.9% | viability, T/C [5]: 7.67% | viability, T/C [6]: 4.78% | viability, T/C (second compound 0.00949 µM, first compound 0.00949 µM): 85% | viability, T/C (second compound 0.00949 µM, first compound 0.03 µM): 67.4% | viability, T/C (second compound 0.00949 µM, first compound 0.0949 µM): 35.9% | viability, T/C (second compound 0.00949 µM, first compound 0.3 µM): 12.1% | viability, T/C (second compound 0.00949 µM, first compound 0.949 µM): 5.26% | viability, T/C (second compound 0.00949 µM, first compound 3 µM): 3.47% | viability, T/C (second compound 0.03 µM, first compound 0.00949 µM): 24.8% | viability, T/C (second compound 0.03 µM, first compound 0.03 µM): 19.4% | viability, T/C (second compound 0.03 µM, first compound 0.0949 µM): 13.1% | viability, T/C (second compound 0.03 µM, first compound 0.3 µM): 8.01% | viability, T/C (second compound 0.03 µM, first compound 0.949 µM): 3.14% | viability, T/C (second compound 0.03 µM, first compound 3 µM): 1.45% | viability, T/C (second compound 0.0949 µM, first compound 0.00949 µM): 11.7% | viability, T/C (second compound 0.0949 µM, first compound 0.03 µM): 9.99% | viability, T/C (second compound 0.0949 µM, first compound 0.0949 µM): 5.31% | viability, T/C (second compound 0.0949 µM, first compound 0.3 µM): 2.68% | viability, T/C (second compound 0.0949 µM, first compound 0.949 µM): 1.52% | viability, T/C (second compound 0.0949 µM, first compound 3 µM): 0.93% | viability, T/C (second compound 0.3 µM, first compound 0.00949 µM): 5.77% | viability, T/C (second compound 0.3 µM, first compound 0.03 µM): 4.7% | viability, T/C (second compound 0.3 µM, first compound 0.0949 µM): 3.42% | viability, T/C (second compound 0.3 µM, first compound 0.3 µM): 1.6% | viability, T/C (second compound 0.3 µM, first compound 0.949 µM): 0.9% | viability, T/C (second compound 0.3 µM, first compound 3 µM): 0.73%

COc1ccc([C@@H](O)c2cc(-c3ncnc4cc(N5CCOCC5)ccc34)c(F)cc2Cl)nn1 + CC[C@@]1(O)C(=O)OCc2c1cc1n(c2=O)Cc2cc3c(CN(C)C)c(O)ccc3nc2-1
IC50 (second compound 0.003 µM): 5390 nM | IC50 (second compound 0.00949 µM): 1760 nM | IC50 (second compound 0.03 µM): < 31.6 nM | IC50 (second compound 0.0949 µM): < 31.6 nM | IC50 (second compound 0.3 µM): < 31.6 nM | viability, T/C (second compound 0.003 µM, first compound 0.0316 µM): 116% | viability, T/C (second compound 0.003 µM, first compound 0.1 µM): 110% | viability, T/C (second compound 0.003 µM, first compound 0.316 µM): 109% | viability, T/C (second compound 0.003 µM, first compound 1 µM): 106% | viability, T/C (second compound 0.003 µM, first compound 3.16 µM): 69% | viability, T/C (second compound 0.003 µM, first compound 10 µM): 27.9% | viability, T/C (second compound 0.00949 µM, first compound 0.0316 µM): 89.9% | viability, T/C (second compound 0.00949 µM, first compound 0.1 µM): 73.8% | viability, T/C (second compound 0.00949 µM, first compound 0.316 µM): 78.9% | viability, T/C (second compound 0.00949 µM, first compound 1 µM): 57.7% | viability, T/C (second compound 0.00949 µM, first compound 3.16 µM): 40.2% | viability, T/C (second compound 0.00949 µM, first compound 10 µM): 17.3% | viability, T/C (second compound 0.03 µM, first compound 0.0316 µM): 30.8% | viability, T/C (second compound 0.03 µM, first compound 0.1 µM): 32.4% | viability, T/C (second compound 0.03 µM, first compound 0.316 µM): 32.8% | viability, T/C (second compound 0.03 µM, first compound 1 µM): 25.5% | viability, T/C (second compound 0.03 µM, first compound 3.16 µM): 13.7% | viability, T/C (second compound 0.03 µM, first compound 10 µM): 13.5% | viability, T/C (second compound 0.0949 µM, first compound 0.0316 µM): 16.2% | viability, T/C (second compound 0.0949 µM, first compound 0.1 µM): 16.6% | viability, T/C (second compound 0.0949 µM, first compound 0.316 µM): 16.4% | viability, T/C (second compound 0.0949 µM, first compound 1 µM): 14% | viability, T/C (second compound 0.0949 µM, first compound 3.16 µM): 10.1% | viability, T/C (second compound 0.0949 µM, first compound 10 µM): 7.97% | viability, T/C (second compound 0.3 µM, first compound 0.0316 µM): 10.7% | viability, T/C (second compound 0.3 µM, first compound 0.1 µM): 9.61% | viability, T/C (second compound 0.3 µM, first compound 0.316 µM): 9.29% | viability, T/C (second compound 0.3 µM, first compound 1 µM): 10.1% | viability, T/C (second compound 0.3 µM, first compound 3.16 µM): 6.94% | viability, T/C (second compound 0.3 µM, first compound 10 µM): 5.57%
